“Also recorded” adds a separate entry of the source.
Test: Cleavage of trypsin-susceptible pNA chromogenic substrate, reverse-phase HPLC
Assay type: biochemical
Settings: for ability to cleave D-Ile-Phe-Lys pNA / ability to cleave N-Benzoyl-Pro-Phe-Arg-pNA / ability to cleave N-p-Tosyl-Gly-Pro-Lys 4-pNA: ~2 μg enzyme, 10 μg substrate, 37° C. 2 hrs, 100 mM HEPES pH7.5 10% glycerol, no exogenous heparin
Procedure: The enzymatic activity of recombinant δ tryptase was evaluated by testing its ability to cleave a panel of three trypsin-susceptible p-nitroanilide (pNA) chromogenic substrates; N-Benzoyl-Pro-Phe-Arg-pNA, D-Ile-Phe-Lys pNA, and N-p-Tosyl-Gly-Pro-Lys 4-pNA (Sigma-Adrich, St Louis, Mo.) and was compared to that of rαII tryptase, and commercially available native human lung tryptase (ICN, Costa Mesa, Calif.) and recombinant human lung βII tryptase (Promega, Madison, Wis.). Pro-δ tryptase (ie prior to removal of the EK susceptible activation peptide), recombinant EK alone, and buffer alone acted as negative controls. Approximately equal amounts (˜2 μg) of the enzymes were incubated with each substrate (10 μg) at 37° C. for 2 hrs, in 100 mM HEPES pH7.5 10% glycerol (total reaction volume=50 μl), and then analysed by HPLC using a reverse-phase column (4.6×50 […] RP18 Xterra, Waters, Bedford, Mass.). In this initial investigation no exogenous heparin was added. Substrate cleavage was determined by the detection of new peaks representing the separated peptide and nitroanilide moieties. The amount of substrate cleaved was estimated by measuring the area under the HPLC peak that corresponded to the liberated peptide moiety using Delta T Scan software version 2.04 (Delta T Devices Ltd, Cambridge, UK). The retention time of the liberated nitroanilide was constant and was experimentally determined to be 2.67 mins.

amount of D-Ile-Phe-Lys pNA substrate cleaved, as much as that cleaved by rβII tryptase (area under HPLC peak of liberated peptide moiety, relative to rβII tryptase) | Substance | ability to cleave D-Ile-Phe-Lys pNA | ability to cleave N-Benzoyl-Pro-Phe-Arg-pNA | ability to cleave N-p-Tosyl-Gly-Pro-Lys 4-pNA
– | pro-rδ tryptase: Recombinant δ tryptase prior to removal of the EK susceptible activation peptide; negative control | No substrate cleavage was detected | – | –
– | rβII tryptase: Commercially available recombinant human lung βII tryptase (Promega) [reference compound] | cleave all three substrates | cleave all three substrates | cleave all three substrates
approximately 12% | rδ tryptase: Recombinant human δ tryptase expressed in bacterial cells, refolded, mature form generated by enterokinase cleavage | able to cleave; also recorded: cleaves | ineffective | ineffective
